{
  "source": "paper PMC11172311",
  "about": "“Structural and Interactional Analysis of the Flavonoid Pathway Proteins: Chalcone Synthase, Chalcone Isomerase and Chalcone Isomerase-like Protein” (International Journal of Molecular Sciences, 2024)",
  "key": {"[1]": {"target": "T1, PvCHS (chalcone synthase) (Panicum virgatum, UniProt A0A8T0PQ54)", "T1 construct": "gene PVAP13_8KG261900; full-length with N-terminal His6-tag; residues 8 to 395 of 402 resolved", "T1 sequence (A0A8T0PQ54 1-402)": "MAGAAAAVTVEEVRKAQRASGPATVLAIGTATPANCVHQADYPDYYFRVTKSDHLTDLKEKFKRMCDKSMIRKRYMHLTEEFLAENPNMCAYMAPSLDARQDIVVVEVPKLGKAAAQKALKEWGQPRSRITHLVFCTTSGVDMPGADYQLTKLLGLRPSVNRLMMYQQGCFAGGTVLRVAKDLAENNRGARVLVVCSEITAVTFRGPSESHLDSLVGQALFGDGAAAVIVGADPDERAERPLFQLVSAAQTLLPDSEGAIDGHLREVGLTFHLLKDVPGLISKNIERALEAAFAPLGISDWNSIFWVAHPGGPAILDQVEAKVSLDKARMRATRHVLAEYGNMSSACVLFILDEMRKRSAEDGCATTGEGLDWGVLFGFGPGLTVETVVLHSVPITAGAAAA", "assay": "X-ray crystal structure (co-crystallization)", "assay_type": "binding"}, "[2]": {"target": "T2, PvCHI (chalcone isomerase) (Panicum virgatum, UniProt A0A8T0N7A2)", "T2 construct": "gene PVAP13_9KG390224; recombinant, N-terminal 6×-His tag", "T2 sequence (A0A8T0N7A2 1-235)": "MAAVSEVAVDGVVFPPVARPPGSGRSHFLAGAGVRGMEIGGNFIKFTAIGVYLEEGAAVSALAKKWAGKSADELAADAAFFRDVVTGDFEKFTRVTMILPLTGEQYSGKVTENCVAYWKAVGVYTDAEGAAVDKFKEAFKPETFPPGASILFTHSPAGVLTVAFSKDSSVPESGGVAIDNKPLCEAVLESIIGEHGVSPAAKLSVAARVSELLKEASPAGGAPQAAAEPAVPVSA", "assay": "steady-state kinetics at […] nm; substrate inhibition (Km […], KI […])", "assay_type": "biochemical"}, "[3]": {"target": "T3, SbCHI (chalcone isomerase, Bmr30) (Sorghum bicolor, UniProt C5WV22)", "T3 construct": "gene SORBI_3001G035600; recombinant SbCHI", "T3 sequence (C5WV22 1-231)": "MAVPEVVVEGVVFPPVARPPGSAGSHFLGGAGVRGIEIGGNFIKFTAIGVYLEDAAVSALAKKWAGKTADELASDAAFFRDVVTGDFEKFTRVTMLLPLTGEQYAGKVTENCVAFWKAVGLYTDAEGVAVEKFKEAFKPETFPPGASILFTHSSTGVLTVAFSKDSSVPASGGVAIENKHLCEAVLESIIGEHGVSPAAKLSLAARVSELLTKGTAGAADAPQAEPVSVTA", "assay": "X-ray crystal structure (binary complex)", "assay_type": "binding"}, "[4]": {"target": "T2, PvCHI (chalcone isomerase)", "assay": "steady-state kinetics with naringenin chalcone as substrate, […] liquiritigenin", "assay_type": "biochemical"}, "[5]": {"target": "T1, PvCHS (chalcone synthase)", "assay": "X-ray crystal structure (co-crystallization, ternary complex with CoA)", "assay_type": "binding"}},
  "note": "pKi: −log10 of the molar value.",
  "data": [
    {"smiles": "CC(C)(COP(=O)(O)OP(=O)(O)OC[C@H]1O[C@@H](n2cnc3c(N)ncnc32)[C@H](O)[C@@H]1OP(=O)(O)O)[C@@H](O)C(=O)NCCC(=O)NCCS", "note": "[CoA]", "values": [
      {"measurement": "X-ray crystal structure (co-crystallization)", "setting": "[1]", "value": "The electron density corresponding to an extended CoA molecule (Figure 2B) along a continuous tunnel"}
    ]},
    {"smiles": "O=C(/C=C/c1ccc(O)cc1)c1ccc(O)cc1O", "note": "[isoliquiritigenin]", "values": [
      {"measurement": "pKi", "setting": "[2]", "value": 4.95}
    ]},
    {"smiles": "O=C1C[C@@H](c2ccc(O)cc2)Oc2cc(O)ccc21", "note": "[liquiritigenin]", "values": [
      {"measurement": "X-ray crystal structure (binary complex)", "setting": "[3]", "value": "the electron density corresponding to liquiritigenin that had been added to the crystallization buffer was clearly identified"},
      {"measurement": "pKi", "setting": "[4]", "value": 6.55}
    ]},
    {"smiles": "O=C1C[C@@H](c2ccc(O)cc2)Oc2cc(O)cc(O)c21", "note": "[naringenin]", "values": [
      {"measurement": "X-ray crystal structure (co-crystallization, ternary complex with CoA)", "setting": "[5]", "value": "one naringenin molecule was visible in the concave pocket established at the interface between two PvCHS dimers"}
    ]}
  ]
}
